Source: article doi:10.1101/2021.10.07.463234v2 (biorxiv, 2021)
Structures can show the parent of a compound that is named as a salt.

Target: SARS-CoV-2 Mac1 (Severe acute respiratory syndrome coronavirus 2, UniProt P0DTD1)
Assay: biochemical
Conditions: for inhibition at 100 µM: read-out: %inhibition; for %inhibition: 100 µM, inhibitor

Compound	inhibition at 100 µM [%]	%inhibition [%]
CCC(C)(C)c1ccc(CC(C)CN2C[C@@H](C)O[C@@H](C)C2)cc1 (stereo partly shown) [Amorolfine HCl]	6.98	–
CCOC(CN1CCN(CC(C)C(=O)c2ccccc2)CC1)c1ccccc1 (stereo not shown) [Eprazinone 2HCl]	0	–
NC(=O)c1cnccn1 [Pyrazinamide]	24.2	–
COC(=O)Nc1nc2cc(C(=O)c3ccccc3)ccc2[nH]1 [Mebendazole]	0	–
CN1[C@@H]2CCC[C@H]1C[C@@H](NC(=O)c1nn(C)c3ccccc13)C2 [Granisetron HCl]	–	0
O=C(O)COc1nn(Cc2ccccc2)c2ccccc12 [Bendazac]	3.85	–
CC(C(=O)O)c1cccc(Oc2ccccc2)c1 (stereo not shown) [Fenoprofen calcium hydrate]	8.96	–
CCn1cc(C(=O)O)c(=O)c2cnc(N3CCCC3)nc21 [Piromidic Acid]	10.1	–
N[C@H]1C[C@@H]1c1ccccc1 [Tranylcypromine (2-PCPA) HCl]	0	–
CCC(=O)O[C@]1(C(=O)CCl)[C@@H](C)C[C@H]2[C@@H]3CCC4=CC(=O)C=C[C@]4(C)[C@@]3(F)[C@@H](O)C[C@@]21C [Clobetasol propionate]	9.68	–
O=C(NC(Cc1cc(=O)[nH]c2ccccc12)C(=O)O)c1ccc(Cl)cc1 (stereo not shown) [Rebamipide]	0	–
CCC(=O)OCC(=O)[C@@]1(OC(=O)CC)[C@@H](C)C[C@H]2[C@@H]3CCC4=CC(=O)C=C[C@]4(C)[C@@]3(F)[C@@H](O)C[C@@]21C [Betamethasone Dipropionate]	5.5	–
Cc1c(F)cc(C(=O)NC2CC2)cc1-c1ccc(C(=O)NCC(C)(C)C)cn1 [Losmapimod (GW856553X)]	0	–
Cc1cc(-n2c(=O)[nH]c(=O)n(C)c2=O)ccc1Oc1ccc(SC(F)(F)F)cc1 [Toltrazuril]	0	–
COc1cc(/C=C/C(=O)N2CCN(CC(=O)N3CCCC3)CC2)cc(OC)c1OC [Cinepazide maleate]	24.7	–
CCCCCCCCN=c1ccn(CCCCCCCCCCn2ccc(=NCCCCCCCC)cc2)cc1 [Octenidine Dihydrochloride]	16	–
O=c1[nH]cnc2c1ncn2[C@@H]1O[C@H](CO)[C@@H](O)[C@H]1O [Inosine]	0	–
CCC(C)(Oc1ccc(C2(c3ccc(OC(C)(CC)C(=O)O)cc3)CCCCC2)cc1)C(=O)O (stereo not shown) [Clinofibrate]	0	–
CCN(CC)CCNC(=O)c1cc(Cl)c(N)cc1OC [Metoclopramide HCl]	0	–
COc1c(C)c2c(c(O)c1C/C=C(\C)CCC(=O)OCCN1CCOCC1)C(=O)OC2 [Mycophenolate Mofetil]	0	–
C[C@H]1c2cccc(O)c2C(=O)C2=C(O)[C@]3(O)C(=O)C(C(N)=O)=C(O)[C@@H](N(C)C)[C@@H]3[C@@H](O)[C@@H]21 [Doxycycline Hyclate]	–	21.8
OC(CCCN1CCCCC1)(c1ccccc1)c1ccccc1 [Diphenidol HCl]	3	–
NC(=O)N1c2ccccc2C=Cc2ccccc21 [Carbamazepine]	0	–
CC1=C(C(=O)O)N2C(=O)[C@@H](NC(=O)[C@H](N)c3ccccc3)[C@H]2SC1 [Cephalexin]	0	–
NCCc1c[nH]c2ccc(O)cc12 [Serotonin HCl]	8.8	–
C[N+]1(C)CCC(=C(c2ccccc2)c2ccccc2)CC1 [Diphemanil Methylsulfate]	0	–

Compound	inhibition at 100 µM [%]	%inhibition [%]
C=CCNC1=C2C[C@@H](C)C[C@H](OC)[C@H](O)[C@@H](C)/C=C(\C)[C@H](OC(N)=O)[C@@H](OC)/C=C\C=C(/C)C(=O)NC(=CC1=O)C2=O [Tanespimycin (17-AAG)]	3.81	–
C#Cc1cccc(Nc2ncnc3cc(OCCOC)c(OCCOC)cc23)c1 [Erlotinib HCl (OSI-744)]	–	12.32
C[C@]12CC[C@@H]3c4ccc(O)cc4CC[C@H]3[C@@H]1C[C@@H](O)[C@@H]2O [Estriol]	0	–
Nc1ccc(/N=N/c2ccccc2)c(N)n1 [Phenazopyridine HCl]	17	–
CCOc1ccc(Cc2cc([C@@H]3O[C@H](CO)[C@@H](O)[C@H](O)[C@H]3O)ccc2Cl)cc1 [Dapagliflozin]	–	1.439
CC(C)[N+]1(C)[C@@H]2CC[C@H]1C[C@@H](OC(=O)C(CO)c1ccccc1)C2 (stereo partly shown) [Ipratropium Bromide]	9.25	–
CCC(=O)O[C@@H](O[P@](=O)(CCCCc1ccccc1)CC(=O)N1C[C@H](C2CCCCC2)C[C@H]1C(=O)O)C(C)C [Fosinopril Sodium]	0	–
CC(=O)N1C[C@H](O)C[C@H]1C(=O)O [Oxaceprol]	0	–
COc1cc(C(=O)NC2CCCNC2)cc(OC)c1OC (stereo not shown) [Troxipide]	19.2	–
Clc1ccc(CCC(Cn2ccnc2)Sc2c(Cl)cccc2Cl)cc1 (stereo not shown) [Butoconazole nitrate]	–	4.358
CC(C)(C)c1cc(C(C)(C)C)c(NC(=O)c2c[nH]c3ccccc3c2=O)cc1O [Ivacaftor (VX-770)]	5.97	–
CC(C)=CCC/C(C)=C/CC/C(C)=C/CCC(=O)OC/C=C(\C)CCC=C(C)C [Gefarnate]	5.96	–
Cc1cc(NC(=O)C2=C(O)c3ccccc3S(=O)(=O)N2C)no1 [Isoxicam]	13.6	–
O=C1CN(/N=C/c2ccc(-c3ccc([N+](=O)[O-])cc3)o2)C(=O)N1 [Dantrolene sodium hemiheptahydrate]	–	2.991
CC[C@]1(O)C[C@H]2CN(CCc3c([nH]c4ccccc34)[C@@](C(=O)OC)(c3cc4c(cc3OC)N(C=O)[C@H]3[C@@](O)(C(=O)OC)[C@H](OC(C)=O)[C@]5(CC)C=CCN6CC[C@]43[C@@H]65)C2)C1 [Vincristine sulfate]	42.2	–
O=c1[nH]c(=O)n([C@H]2C[C@H](O)[C@@H](CO)O2)cc1/C=C/Br [Brivudine]	17.8	–
O=C(O)C(O)C(O)C(=O)O (stereo not shown) [Choline bitartrate]	0	–
CC(C)(Oc1ccc(C(=O)c2ccc(Cl)cc2)cc1)C(=O)O [Fenofibric acid]	0	–
O=C(O)COC(=O)Cc1ccccc1Nc1c(Cl)cccc1Cl [Aceclofenac]	0	–
C[C@H](CS)C(=O)N1CCC[C@H]1C(=O)O [Captopril]	0	–
FC(F)(F)c1ccc(/C=C/c2nc(COc3ccc(CCCCn4ccnn4)cc3)co2)cc1 [Mubritinib (TAK 165)]	0	–
CN(C)N(C)C(=O)[C@@]1(Cc2ccccc2)CCCN(C(=O)[C@@H](Cc2c[nH]c3ccccc23)NC(=O)C(C)(C)N)C1 [Anamorelin]	1.6	–
OC[C@@H](O)[C@@H](O)[C@H](O)[C@@H](O)CO [Sorbitol]	0	–
CCN(CC)CCOCCOC(=O)C1(c2ccccc2)CCCC1 [Pentoxyverine Citrate]	24.6	–
CC(O)(P(=O)(O)O)P(=O)(O)O [Etidronate]	0	–
C#CCN[C@@H]1CCc2ccccc21 [Rasagiline Mesylate]	0	–

Compound	inhibition at 100 µM [%]	%inhibition [%]
CC(C)[C@H](N)C(=O)OCCOCn1cnc2c(=O)nc(N)[nH]c21 [Valaciclovir HCl]	39.4	–
Nc1nc(=O)c2c([nH]1)NCC(CNc1ccc(C(=O)N[C@@H](CCC(=O)O)C(=O)O)cc1)N2C=O (stereo partly shown) [Calcium folinate]	0	–
CN(C)C/C=C/C(=O)Nc1cc2c(Nc3ccc(F)c(Cl)c3)ncnc2cc1O[C@H]1CCOC1 [Afatinib (BIBW2992) Dimaleate]	–	21
C[C@@H](O[C@H]1OCCN(Cc2nn(P(=O)(O)O)c(=O)[nH]2)[C@H]1c1ccc(F)cc1)c1cc(C(F)(F)F)cc(C(F)(F)F)c1 [Fosaprepitant dimeglumine salt]	3	–
Cn1ccnc1S [Methimazole]	0	–
CSc1nc2cc(Cl)c(Oc3cccc(Cl)c3Cl)cc2[nH]1 [Triclabendazole]	20.5	–
COC(=O)/C=C/C(=O)OC [Dimethyl Fumarate]	23.8	–
CCCCC(CC)COC(=O)C(C#N)=C(c1ccccc1)c1ccccc1 (stereo not shown) [Octocrylene]	0	–
CC(C)c1nc(N(C)S(C)(=O)=O)nc(-c2ccc(F)cc2)c1/C=C/[C@@H](O)C[C@@H](O)CC(=O)O [Rosuvastatin Calcium]	–	0
CC(=O)Oc1ccccc1C(=O)Nc1ncc([N+](=O)[O-])s1 [Nitazoxanide]	0	–
O=C(CCNNC(=O)c1ccncc1)NCc1ccccc1 [Nialamide]	25	–
O=C(O)CCC(=O)c1ccc(-c2ccccc2)cc1 [Fenbufen]	0	–
O=c1sn(-c2cccc3ccccc23)c(=O)n1Cc1ccccc1 [Tideglusib]	–	42.74
CN(C)c1ccc2nc3ccc(=[N+](C)C)cc-3sc2c1 [Methylene Blue]	43.3	–
CCCSc1nc(N[C@@H]2C[C@H]2c2ccc(F)c(F)c2)c2nnn([C@@H]3C[C@H](OCCO)[C@@H](O)[C@H]3O)c2n1 [Ticagrelor]	6.12	–
C=C[C@]1(C)C[C@@H](OC(=O)CSC(C)(C)CNC(=O)[C@H](N)C(C)C)[C@]2(C)[C@H](C)CC[C@]3(CCC(=O)[C@H]32)[C@@H](C)[C@@H]1O [Valnemulin HCl]	23.1	–
CNC(=O)[C@H](Cc1c[nH]c2ccccc12)NC(=O)[C@@H](CC(=O)NO)CC(C)C [Ilomastat (GM6001, Galardin)]	21	–
Oc1c(Br)cc(Br)c2cccnc12 [Broxyquinoline]	0	–
C=CC(=O)N1CCC[C@@H](n2nc(-c3ccc(Oc4ccccc4)cc3)c3c(N)ncnc32)C1 [Ibrutinib (PCI-32765)]	6.43	–
CC(C)c1cc(-c2n[nH]c(=O)n2-c2ccc3c(ccn3C)c2)c(O)cc1O [Ganetespib (STA-9090)]	1.18	–
CC(C)NC[C@@H](O)COc1ccc(CC(N)=O)cc1 [(R)-(+)-Atenolol HCl]	9.19	–
Nc1nc(CC(=O)Nc2ccc(CCNC[C@H](O)c3ccccc3)cc2)cs1 [Mirabegron]	0	–
CN1c2ccccc2C(NCCCCCCC(=O)O)c2ccc(Cl)cc2S1(=O)=O (stereo not shown) [Tianeptine]	–	12.39
COc1ccc(C(=O)c2ccccc2)c(O)c1 [Oxybenzone]	0.0343	–
